# From patent publication US20250289844A1, “TREATMENT OF GM1 DEFICIENCIES” (Seneb BioSciences, Inc., priority 2022, published 2025)
# Tests used:
# [1] = Pharmacokinetics of formulated GM1 after subcutaneous administration; type: in vivo; conditions: Sprague Dawley rats, 30 mg/Kg, all GM1 concentrations tested
# Protocol: (§1) FIG. 26. Solubility of GM1 of the Invention and Pharmacokinetics of different formulations of GM1 in Sprague Dawley after subcutaneous administration at a dose of 30 mg/Kg. GM1 was formulated at different GM1 concentrations from 50 mg/mL to 500 mg/mL in water or buffer with or without excipients and cosolvents.
# Example 5. Pharmacokinetics of Formulated GM1. The formulated GM1 was administered, subcutaneously, to Sprague Dawley rats and the pharmacokinetics determined (FIG. 26). The plasma GM1 levels returned to normal after 72 hours for all GM1 concentrations tested.
# [2] = Stability of GM1 formulations at room temperature; type: physicochemical; conditions: water or phosphate buffer 0-15 mM pH 7.0-7.4, arginine 60-100 mM, sodium chloride 0-137 mM
# Protocol: (§2) Example 4. Formulation of GM1. Water or buffer solutions were added to GM1 and the suspension stirred until the GM1 was completely dissolved. […] Concentrations of solutions of GM1 prepared by this method included 50 mg/mL, 100 mg/mL, 200 mg/mL, 300 mg/mL, 400 mg/mL and 500 mg/mL. Formulations containing phosphate buffer 0-15 mM (pH 7.0-7.4) were also used and various excipients added including arginine (60-100 mM) and sodium chloride (0-137 mM) (FIG. 26).
# [3] = test system: GM2 synthase deficient mice; test: Minimum effective dose and motor/cognitive function, ganglioside replacement therapy in GM2 synthase deficient mice; type: in vivo
# Protocol: FIG. 14. Motor and Cognitive function of GM2 synthase deficient mice (heterozygotes; HT and homozygotes; KO; 200-300 day old) treated with either saline (Sal) or GM1 (d18:1, C18:0) (30 mg/Kg, intraperitoneal, once daily) and compared to age matched controlled wild type mice (WT). FIG. 14A. Mouse grip strength, and FIG. 14B. Mouse cognitive function (T-maze), were assessed after 3 weeks of dosing.
# FIG. 27. Minimum effective dose. Motor function of GM2 synthase deficient mice (heterozygotes; HT, 200-300 day old) treated with GM1(d18:1, C18:0) (intraperitoneal, once daily). FIG. 27A. Mouse grip strength, FIG. 27B. Adhesive removal, and FIG. 27C. Pole climbing.
# (§3) The minimum effective dose of GM1 of the invention was 5 mg/kg (IP, once daily) when administered as ganglioside replacement therapy in ganglioside deficient mice FIG. 27. […] The predicted therapeutic human dose based on allometric scaling of all animal and human data is predicted to be 2-10 mg/Kg administered daily as a parenteral (e.g., subcutaneous, intraperitoneal, intramuscular). In an exemplary embodiment, the therapeutically effective amount is from about 2 to about 10 mg per kg of body weight per dosage. In an exemplary embodiment, the dose of the GM1 formulation is administered parenterally once daily.
# [4] = vendor or literature description; cited from earlier work
# [5] = Formulation / solubility of GM1 in water or buffer; type: physicochemical; conditions: 50 to 500 mg/mL
# Protocol: as §1, §2
# [6] = test system: GM3 synthase deficient mice; test: Motor and cognitive function, ganglioside replacement therapy in GM3 synthase deficient mice; type: in vivo; conditions: 5 mg/kg IP once daily; GM3 synthase deficient mice (knock-outs and heterozygotes)
# Protocol: FIG. 15. Motor and Cognitive function of GM3 synthase deficient mice (heterozygotes; HT and homozygotes; KO; 7-10 months old) treated with either saline (Sal) or GM1 (d18:1, C18:0) (30 mg/Kg, intraperitoneal, once daily for 3 weeks) and compared to age matched controlled wild type mice (WT). FIG. 15A. Grip Duration, FIG. 15B. Beam Transversal, and FIG. 15C. Short-term memory impairment (T-maze).
# as §3
# [7] = test system: Huntington's disease YAC128 mice; test: Motor function (rotarod, narrow beam) in Huntington's disease YAC128 mice; type: in vivo; conditions: Alzet pump, intracerebral ventricular injection
# Protocol: FIG. 25. Improvement of motor function in Huntington's disease YAC128 mice after ganglioside replacement therapy using ganglioside compositions of the invention. Mice were administered GM1 using an Alzet pump and intracerebral ventricular injection. FIG. 25A. […] FIG. 25B. […] WT mice treated with GM1 (□), solid line; WT mice treated with cerebral spinal fluid (▪) hashed line; YAC128 Huntington's disease mice treated with cerebral spinal fluid (⋄) hashed line; YAC128 Huntington's disease mice treated with GM1 (♦) solid line.
# In still other embodiments, gangliosides and other compounds of the invention can be used as a therapeutic to treat Huntington's disease caused by a deficiency of one or more ganglioside species, e.g., GM3, GM2 and/or GM1, FIGS. 20 and 24 (Di Pardo (2016) Front. Neurosci. 10:457). In some embodiments, the ganglioside deficiency is caused by reduced or missing enzyme activity and/or expression selected from GM3 synthase (ST3Gal5), GM2 synthase (B4GalNT1) and GM1 synthase (B3GalT4), FIG. 24 (Desplats (2007) Neurobiol. Dis. 27(3): 265-277). In another preferred embodiment, the ganglioside deficiency encompasses reduced amounts or missing ganglioside selected from GM3, GM2 and/or GM1. […]
structure (smiles),measurement,setting,value
"CCCCCCCCCCCCC/C=C/C(O)C(CO[C@@H]1O[C@H](CO)[C@@H](O[C@@H]2O[C@H](CO)[C@H](O[C@@H]3O[C@H](CO)[C@H](O)[C@H](O[C@@H]4O[C@H](CO)[C@H](O)[C@H](O)[C@H]4O)[C@H]3NC(C)=O)[C@H](O[C@]3(C(=O)O)C[C@H](O)[C@@H](NC(C)=O)[C@@H](C(O)C(O)CO)O3)[C@H]2O)[C@H](O)[C@H]1O)NC(=O)CCCCCCCCCCCCCCCCC (stereo partly drawn) [GM1, GM1 (d18:1/C18:0)]",time after which plasma GM1 levels returned to normal,[1],72 h
same,stability of formulations,[2],stable at room temperature for months
same,motor and cognitive deficits,"[3]; 5 mg/kg IP once daily, GM2 synthase deficient mice (knock-outs and heterozygotes)",reversing motor and cognitive deficits
same,minimum effective dose,"[3]; IP, once daily, ganglioside replacement therapy in ganglioside deficient mice (FIG. 27: grip strength, adhesive removal, pole climbing)",5 mg/kg
same,solubility in water,[4],effectively no solubility in water
same,appearance of solution,[5],"clear, colorless and non-opaque solution"
same,motor and cognitive deficits,[6],reversing motor and cognitive deficits
same,rotarod motor function,[7]; FIG. 25A,Improved rotarod motor function
same,narrow beam motor function,[7]; FIG. 25B,Improved narrow beam motor function
